Reference: US4599351A (priority 1984, dated 1986)
Converted amounts (≈) assume the structure as drawn. “And” between values parts separate entries of the source, which are not always exact repeats. Identical values can stand only once.

Legend:
[1] = test system: Plasmopara viticola; assay: whole plant or invertebrate; type: in vivo
[2] = test system: Phytophthora infestans; assay: whole plant or invertebrate; type: in vivo
[3] = test system: Pythium ultimum Sensitive (Naturally Occurring); assay: Fungitoxicity in V-8 juice agar, sensitive Pythium ultimum (Example 7); type: cell-based; conditions: for IC50: Globisporangium ultimum, V-8 juice agar, read-out: ED50, Pythium ultimum Sensitive (Naturally Occurring)
[4] = test system: Pythium ultimum Resistant; assay: microbe, parasite or virus in culture; type: cell-based; conditions: for ED50 Ratio R/S, Pythium ultimum: ED50-resistant to ED50-sensitive; for IC50: Globisporangium ultimum, read-out: ED50, Pythium ultimum Resistant
[5] = test system: Pythium vexans Sensitive (Naturally Occurring); assay: Fungitoxicity in V-8 juice agar, sensitive Pythium vexans (Example 7); type: cell-based; conditions: for IC50: Phytopythium vexans, V-8 juice agar, read-out: ED50, Pythium vexans Sensitive (Naturally Occurring)
[6] = test system: Pythium vexans Resistant; assay: microbe, parasite or virus in culture; type: cell-based; conditions: for ED50 Ratio R/S, Pythium vexans: ED50-resistant to ED50-sensitive; for IC50: Phytopythium vexans, read-out: ED50, Pythium vexans Resistant; for ED50 against resistant fungi (in words): resistant mutant strains of Pythium ultimum or Pythium vexans, agar studies
[7] = test system: Plasmopara viticola; assay: Eradicant Grape Downy Mildew control (Example 4); type: in vivo
Method: Compounds of the invention were tested for the eradicant control of the Grape Downy Mildew organism Plasmopara viticola. Detached leaves of between 70 and 80 mm diameter of 7-week-old Vitis vinifera cultivar Emperor grape seedlings were used as hosts. The leaves were inoculated with the organism and placed in an environment chamber and incubated at 18° C.-22° C. and at about 100% relative humidity for 1 to 2 days. The leaves were then sprayed with a solution of the test compound in acetone, water and a small amount of a nonionic emulsifier. The sprayed leaves were then maintained at 18° C.-22° C. and at about 100% relative humidity. Seven to nine days after inoculation, the amount of disease control was determined. The percent disease control provided by the compound of Example 1 was based on the percent disease reduction relative to nontreated check plants.

[8] = Plasmopara viticola, in Vitis vinifera, read-out: Fungicidal Efficacy, GDM (percent disease control)
[9] = Phytophthora infestans, in Solanum lycopersicum, read-out: Fungicidal Efficacy, TLB (percent disease control)
[10] = Table II Test 4, 16 ppm, infection in check plants 63%
[11] = Table II Test 4, 40 ppm, infection in check plants 63%
[12] = Table II Test 4, 100 ppm, infection in check plants 63%
[13] = Table II Test 4, 250 ppm, infection in check plants 63%
[14] = Table II Test 5, 6.4 ppm, infection in check plants 60%
[15] = Table II Test 5, 16 ppm, infection in check plants 60%
[16] = Table II Test 5, 40 ppm, infection in check plants 60%

SMILES | pest or weed control at 250 ppm [1, 8] | pest or weed control at 250 ppm [2, 9] | IC50 [3] | ED50 Ratio R/S, Pythium ultimum [4] | IC50 [4] | IC50 [5] | ED50 Ratio R/S, Pythium vexans [6] | IC50 [6] | other results
CCCC(=O)N(c1c(C)cccc1C)C1CCSC1=O (stereo not shown) [CH2 CH2 CH3, Y = S, Z = O, 3-(N-butyryl-2,6-dimethylanilino)-butyrothiolactone] | 99% | 35% |  |  |  |  |  |  | 
CC(=O)N(c1c(C)cccc1C)C1CCOC1=O (stereo not shown) [CH3] |  |  |  |  |  |  |  |  | pest or weed control at 100 ppm [1, 8]: 42%; pest or weed control at 100 ppm [2, 9]: 79%
CCC(=O)N(c1c(C)cccc1C)C1CCOC1=O (stereo not shown) [C2 H5] |  | 23% | 0.26 µg/mL (≈ 0.995 µM) | 808 | 210 µg/mL (≈ 804 µM) | > 1 µg/mL | < 140 | 140 µg/mL (≈ 536 µM) | Percent Control of TLB [2, 10]: 0%; Percent Control of TLB [2, 11]: 0%; Percent Control of TLB [2, 12]: 54%; Percent Control of TLB [2, 13]: 80%; ED50 relative to the R^1 is propyl compound, P. ultimum (sensitive) ([3]; comparison in words): more than ten times; ED50 relative to the R^1 is propyl compound, P. ultimum (resistant) ([4]; comparison in words): more than twice the ED50 for the R^1 is propyl compound; ED50 relative to the R^1 is butyl compound, P. vexans (sensitive) ([5]; comparison in words): more than ten times; ED50 relative to the R^1 is propyl compound, P. vexans (sensitive) ([5]; comparison in words): more than two times; ED50 R/S ratio (in words) ([6]; Table III): very good; ED50 relative to the R^1 is butyl compound, P. vexans (resistant) ([6]; comparison in words): more than three times that of the R^1 is butyl compound; ED50 relative to the R^1 is propyl compound, P. vexans (resistant) ([6]; comparison in words): more than three times that of the R^1 is propyl compound
CCCCC(=O)N(c1c(C)cccc1C)C1CCOC1=O (stereo not shown) [3-(N-valeryl-N-2,6-dimethylphenylamino)-gamma-butyrolactone] | 100% | 96% |  |  |  | 0.1 µg/mL (≈ 0.346 µM) | 400 | 40 µg/mL (≈ 138 µM) | percent disease control (eradicant) ([7]; 40 ppm): 92%; percent disease control (eradicant) ([7]; 100 ppm): 100%; Percent Control of GDM ([1]; in vivo): 100% and 60% and 54%; fungicidal activity toward Grape Downy Mildew (in words) ([1]; in vivo): unexpectedly high fungicidal activity toward Grape Downy Mildew; Percent Control of TLB [2, 14]: 8%; Percent Control of TLB [2, 15]: 28%; Percent Control of TLB [2, 16]: 42%; ED50 against resistant fungi (in words) [6]: substantially better ED50's against resistant fungi than the compounds where R^1 has less than 3 carbon atoms
COCC(=O)N(c1c(C)cccc1C)C(C)C(=O)OC (stereo not shown) [CONTROL, N-methoxyacetyl-N-(1-methoxycarbonylethyl)-2,6-dimethylaniline, reference compound] |  |  | 0.036 µg/mL (≈ 0.129 µM) | 26,000 | 940 µg/mL (≈ 3370 µM) | 0.075 µg/mL (≈ 0.268 µM) | 8,467 | 635 µg/mL (≈ 2270 µM) | 
CCCCCC(=O)N(c1c(C)cccc1C)C1CCOC1=O (stereo not shown) [(CH2)4 CH3] | 100% | 91% |  |  |  | 0.56 µg/mL (≈ 1.85 µM) | 29 | 16 µg/mL (≈ 52.7 µM) | base ED50 relative to Grape Downy Mildew producing fungi (natural), versus R^1 is propyl or butyl compounds ([1]; in vivo): four to ten times higher than the R^1 is propyl or butyl compounds; Percent Control of TLB [2, 14]: 7%; Percent Control of TLB [2, 15]: 3%; Percent Control of TLB [2, 16]: 37%; ED50 R/S ratio (in words) ([6]; Table III): excellent; effect of acquired Control resistance on fungitoxicity (in words) ([6]; Table III, resistant mutants of Pythium ultimum and/or Pythium vexans): substantially less affected by the acquired Control resistance than any of the compounds in Table III; ED50 against resistant fungi (in words) [6]: excellent
CCCC(=O)N(c1c(C)cccc1C)C1CCOC1=O (stereo not shown) [Example 1, 3-(N-butyryl-N-2,6-dimethylphenylamino)-gamma-butyrolactone] | 100% | 99% | 0.02 µg/mL (≈ 0.0726 µM) | 4,750 | 95 µg/mL (≈ 345 µM) | 0.43 µg/mL (≈ 1.56 µM) | 100 | 43 µg/mL (≈ 156 µM) | percent disease control (eradicant) ([7]; 40 ppm): 100%; percent disease control (eradicant) ([7]; 100 ppm): 100%; percent disease control (eradicant) ([7]; 250 ppm): 100%; fungicidal activity toward Grape Downy Mildew (in words) ([1]; in vivo): unexpectedly high fungicidal activity toward Grape Downy Mildew; Percent Control of TLB [2, 10]: 0%; Percent Control of TLB [2, 11]: 48%; Percent Control of TLB [2, 12]: 76%; Percent Control of TLB [2, 13]: 94%; ED50 against resistant fungi (in words) [6]: substantially better ED50's against resistant fungi than the compounds where R^1 has less than 3 carbon atoms
CCCC(=S)N(c1c(C)cccc1C)C1CCOC1=O (stereo not shown) [CH2 CH2 CH3, Y = O, Z = S] | 100% | 96% |  |  |  |  |  |  | 
COCC(=O)N(c1c(C)cccc1C)C1CCOC1=O (stereo not shown) [CH2 OCH3, reference compound] |  |  | 0.005 µg/mL (≈ 0.018 µM) | 160,000 | 800 µg/mL (≈ 2880 µM) | 0.15 µg/mL (≈ 0.541 µM) |  | 400 µg/mL (≈ 1440 µM) | 
Cc1cccc(C)c1N(C(=O)C(C)C)C1CCOC1=O (stereo not shown) [CH(CH3)2] | 0% | 23% |  |  |  |  |  |  | 
Cc1cccc(C)c1N(C(=O)CC(C)C)C1CCOC1=O (stereo not shown) [CH2 CH(CH3)2] | 96% | 0% |  |  |  |  |  |  | 
Cc1cccc(C)c1N(C(=O)C(C)(C)C)C1CCOC1=O (stereo not shown) [C(CH3)3] |  | 0% |  |  |  |  |  |  | 
Cc1cccc(C)c1N(C(=O)CCl)C1CCOC1=O (stereo not shown) [CH2 Cl, reference compound] |  |  | 0.005 µg/mL (≈ 0.0177 µM) | 24,000 | 120 µg/mL (≈ 426 µM) | 0.19 µg/mL (≈ 0.674 µM) | 763 | 145 µg/mL (≈ 515 µM) | 
